The source of these data is patent US11866431B2, “Bicyclic compounds” (Vivace Therapeutics, Inc., priority 2018, dated 2024).

A value given as a limit tells only on which side of the number the result lay.

The first assay relates to 8XTBD luciferase reporter (YAP reporter) in HEK293T cells. As to the kind of experiment: YAP Reporter Assay. In kind it is cell-based. The following applies: Homo sapiens, HEK-293T, 24 h, read-out: Firefly Luciferase IC50 (μM). The protocol: HEK293T cells stably transfected with 8XTBD luciferase reporter and pRLTK in 384-well plates were treated with the test compounds, starting from 3 μM (final concentration in assay plate), 1:3 dilution, and 10 points in quadruplicates. Post 24-hr incubation with compounds at 37° C. and 5% CO2, cells were lysed and 8XTBD-driven firefly luciferase and control TK-driven renilla luciferase activities were measured using Promega Dual-Luciferase Reporter Assay System.
Reagents: The reagents used for this study are: DMEM: Invitrogen #11960077, Dual-Glo Luciferase Assay System: Promega-E2980, Puromycin Dihydrochloride: Invitrogen-A1113803, 384-well plate: PerkinElmer-6007480, L-GLUTAMINE: Invitrogen-25030164, Hygromycin B: Invitrogen-10687010, and Penicillin-Streptomycin: Merk-TMS-AB2-C
Media: The media used for this assay were: Culture Medium: DMEM+1 ug/mL puromycin+200 ug/mL hygromycin (with 10% FBS+1 mM L-glutamine); and Assay Medium: DMEM (with 10% FBS+1 mM L-glutamine+1×P/S).
Cell Plating: The appropriate media was warmed at 37° C. by water bath: Culture Medium, Assay Medium, 1*D-PBS, 0.05% trypsin-EDTA. The cells were trypsinized after removing all media, then washed with 1*sterile D-PBS and then with 2 ml 0.05% trypsin-EDTA. The cells were then incubated at RT for one minute. Then 10 ml/75 cm2 flask Assay Medium was added to each flask. Using a 10 ml pipette, the cells were then gently resuspended in the media, until the clumps completely disappeared. The cells were then transferred into 50 ml centrifuge tubes and were centrifuged at 800 rpm for 5 mins. The medium was removed and the cells were resuspended with Assay Medium. An aliquot of cells was used to count the cell density (cells/ml). The cell suspension was then diluted with Assay Medium to a concentration of 6×10^4 cells/ml. 50 ul cells suspension was then plated to 384-well plate (PerkinElmer-6007480), 3×10^3 cells/well and the cells were incubated in an incubator at 37° C. 5% CO2.
Compound Treatment: In the afternoon (incubation of the plate with 3-4 hrs), the test compounds were added by Echo, starting from 3 uM (final concentration in the assay plate), 1:3 dilution, 10 points, quadruplicates. The plate was placed at 37° C. 5% CO2 incubator for 24 hrs.
Detection: The Dual-Glo Luciferase Reagent was prepared by transferring the contents of one bottle of Dual-Glo Luciferase Buffer to one bottle of Dual-Glo Luciferase Substrate to create the Dual-Glo Luciferase Reagent. Mixing was performed by inversion until the substrate was thoroughly dissolved. After mixing, the reagent was aliquoted into 15 ml tubes. In the afternoon (24 hrs post compound treatment), the DMEM+ medium in the 384 well plates were aspirated by Microplate Washer.
Measuring firefly luciferase activity: 20 ul Dual-Glo Luciferase Reagent was added to the 384-well plates. The plates were protected from light to prevent interference with the assay. The plates were shaken for 1 min followed centrifuging plates at 1000 rpm for 30 seconds. After waiting at least 10 minutes, the firefly luminescence was measured by Envision.
Measuring renilla luciferase activity: 20 ul Stop-Glo Reagent was added to the 384-well plates. The plates were shaken for 1 min and then centrifuged at 1000 rpm for 30 seconds. After waiting at least 10 minutes, the renilla luminescence was measured by Envision.
Compound IC50 and maximum inhibition on the firefly luciferase and renilla luciferase activities were reported separately.
For the compound `CC(C)NC(=O)c1ccc2c(-c3ccc(C(F)(F)F)cc3)cc3sc(N)nc3c2c1` [Compound 63, 2-amino-N-isopropyl-5-(4-(trifluoromethyl)phenyl)naphtho[1,2-d]thiazole-8-carboxamide], the IC50 (usually the concentration at which inhibition is half-maximal) is < 0.1 µM.

Consider `CC(C)NC(=O)c1ccc2c(-c3ccc(C(F)(F)F)cc3)cc3scnc3c2c1` [Compound 68, N-isopropyl-5-(4-(trifluoromethyl)phenyl)naphtho[1,2-d]thiazole-8-carboxamide], for which the IC50 was < 0.1 µM.

`CC(C)NC(=O)c1cnc2c(-c3ccc(C(F)(F)F)cc3)cc(F)c(F)c2c1` [Compound 72, 5,6-Difluoro-N-isopropyl-8-(4-(trifluoromethyl)phenyl)quinoline-3-carboxamide]: the IC50 is < 0.1 µM.

In the case of `CCOc1cc(-c2ccc(C(F)(F)F)cc2)c2ncc(C(=O)NC(C)C)cc2c1` [Compound 80, 6-ethoxy-N-isopropyl-8-(4-(trifluoromethyl)phenyl)quinoline-3-carboxamide], the half-maximal inhibitory concentration (IC50) is < 0.1 µM.

The same assay, now with this note: Homo sapiens, HEK-293T; HEK293T cells stably transfected with 8XTBD luciferase reporter and pRLTK; 24-hr incubation; top concentration 3 μM; read-out: Firefly Luciferase IC50.
Consider `O=C(NC(CF)CF)c1ccc2c(-c3ccc(C(F)(F)F)cc3)cccc2c1` [Compound 62, N-(1,3-difluoropropan-2-yl)-5-(4-(trifluoromethyl)phenyl)-2-naphthamide], for which the IC50 was 0.1 to 1 µM.

Regarding `C[C@@H](CN(C)C)NC(=O)c1ccc2c(-c3ccc(C(F)(F)F)cc3)cccc2c1` [Compound 64, (S)—N-(1-(dimethylamino)propan-2-yl)-5-(4-(trifluoromethyl)phenyl)-2-naphthamide], the IC50 was 1 to 3 µM.

As for `C[C@H](CN(C)C)NC(=O)c1ccc2c(-c3ccc(C(F)(F)F)cc3)cccc2c1` [Compound 65, (R)—N-(1-(dimethylamino)propan-2-yl)-5-(4-(trifluoromethyl)phenyl)-2-naphthamide], the IC50 lay within 1 to 3 µM.

For `C[C@@H](CN1CCCC1)NC(=O)c1ccc2c(-c3ccc(C(F)(F)F)cc3)cccc2c1` [Compound 66, (S)—N-(1-(pyrrolidin-1-yl)propan-2-yl)-5-(4-(trifluoromethyl)phenyl)-2-naphthamide], the IC50 fell in the range of 0.1 to 1 µM.

In the case of `C[C@H](CN1CCCC1)NC(=O)c1ccc2c(-c3ccc(C(F)(F)F)cc3)cccc2c1` [Compound 67, (R)—N-(1-(pyrrolidin-1-yl)propan-2-yl)-5-(4-(trifluoromethyl)phenyl)-2-naphthamide], the IC50 is 0.1 to 1 µM.

Consider `C[C@H](CN1CCOCC1)NC(=O)c1ccc2c(-c3ccc(C(F)(F)F)cc3)cccc2c1` [Compound 70, (R)—N-(1-morpholinopropan-2-yl)-5-(4-(trifluoromethyl)phenyl)-2-naphthamide], for which the half-inhibitory concentration (IC50) was in the range of 1 to 3 µM.

Consider `CC(C)NC(=O)c1ccc2c(-c3ccc(C(F)(F)F)cc3)cc3ocnc3c2c1` [Compound 71, N-isopropyl-5-(4-(trifluoromethyl)phenyl)naphtho[1,2-d]oxazole-8-carboxamide], for which the IC50 was < 0.1 µM.

For `CS(=O)(=O)NC(=O)c1cnc2c(-c3ccc(C(F)(F)F)cc3)cc(F)c(F)c2c1` [Compound 73, 5,6-Difluoro-N-(methylsulfonyl)-8-(4-(trifluoromethyl)phenyl)quinoline-3-carboxamide], the IC50 was 0.1 to 1 µM.

With `COCC(=O)NCCOCCOCCNC(=O)c1ccc2c(-c3ccc(C(F)(F)F)cc3)cccc2c1` [Compound 76, N-(4-oxo-2,8,11-trioxa-5-azatridecan-13-yl)-5-(4-(trifluoromethyl)phenyl)-2-naphthamide], the IC50 lay within 0.1 to 1 µM.

For `COCCC(=O)NCCOCCOCCNC(=O)c1ccc2c(-c3ccc(C(F)(F)F)cc3)cccc2c1` [Compound 77, N-(5-oxo-2,9,12-trioxa-6-azatetradecan-14-yl)-5-(4-(trifluoromethyl)phenyl)-2-naphthamide], the IC50 is 0.1 to 1 µM.

With `CCS(=O)(=O)NC(=O)c1ccc2c(-c3ccc(C(F)(F)F)cc3)cccc2c1` [Compound 78, N-(ethylsulfonyl)-5-(4-(trifluoromethyl)phenyl)-2-naphthamide], the IC50 was in the range of 0.1 to 1 µM.

On to `CCOc1cc(-c2ccc(C(F)(F)F)cc2)c2ncc(C(=O)NS(C)(=O)=O)cc2c1` [Compound 81, 6-ethoxy-N-(methylsulfonyl)-8-(4-(trifluoromethyl)phenyl)quinoline-3-carboxamide], for which the IC50 was 0.1 to 1 µM.

With `C[C@@H](CO)NC(=O)c1ccc2c(-c3ccc(C(F)(F)F)cc3)cccc2c1` [Compound 84, (S)—N-(1-hydroxypropan-2-yl)-5-(4-(trifluoromethyl)phenyl)-2-naphthamide], the concentration for half-maximal inhibition (IC50) is < 0.1 µM.

For the compound `C[C@H](CO)NC(=O)c1ccc2c(-c3ccc(C(F)(F)F)cc3)cccc2c1` [Compound 85, (R)—N-(1-hydroxypropan-2-yl)-5-(4-(trifluoromethyl)phenyl)-2-naphthamide], the IC50 was < 0.1 µM.

In the case of `O=C(NCCO)c1ccc2c(-c3ccc(C(F)(F)F)cc3)cccc2c1` [Compound 86, N-(2-hydroxyethyl)-5-(4-(trifluoromethyl)phenyl)-2-naphthamide], the half-maximal inhibitory concentration (IC50) was < 0.1 µM.

`CC(C)NC(=O)c1ccc2c(-c3ccc(C(F)(F)F)cc3)ccc(C(F)(F)F)c2c1` [Compound 87, N-isopropyl-8-(trifluoromethyl)-5-(4-(trifluoromethyl)phenyl)-2-naphthamide]: the IC50 is 0.1 to 1 µM.

For `CC(C)NC(=O)c1ccc2c(-c3ccc(C(F)(F)F)cc3)ccc(I)c2c1` [Compound 88, 8-iodo-N-isopropyl-5-(4-(trifluoromethyl)phenyl)-2-naphthamide], the 50% inhibitory concentration (IC50) is 0.1 to 1 µM.

For the compound `COC[C@H](C)NC(=O)c1ccc2c(-c3ccc(C(F)(F)F)cc3)cccc2c1` [Compound 89, (S)—N-(1-methoxypropan-2-yl)-5-(4-(trifluoromethyl)phenyl)-2-naphthamide], the 50% inhibitory concentration (IC50) is < 0.1 µM.

Consider `C[C@H](NC(=O)c1ccc2c(-c3ccc(C(F)(F)F)cc3)cccc2c1)c1ccccn1` [Compound 90, (S)—N-(1-(pyridin-2-yl)ethyl)-5-(4-(trifluoromethyl)phenyl)-2-naphthamide], for which the IC50 is < 0.1 µM.

Consider `C[C@@H](NC(=O)c1ccc2c(-c3ccc(C(F)(F)F)cc3)cccc2c1)c1ccccn1` [Compound 91, (R)—N-(1-(pyridin-2-yl)ethyl)-5-(4-(trifluoromethyl)phenyl)-2-naphthamide], for which the IC50 is 0.1 to 1 µM.

For `CNCC(C)NC(=O)c1ccc2c(-c3ccc(C(F)(F)F)cc3)cccc2c1` (stereo not drawn) [Compound 92, N-(1-(methylamino)propan-2-yl)-5-(4-(trifluoromethyl)phenyl)-2-naphthamide], the IC50 lay in the range of 0.1 to 1 µM.

Consider `COC[C@@H](C)NC(=O)c1ccc2c(-c3ccc(C(F)(F)F)cc3)cccc2c1` [Compound 93, (R)—N-(1-methoxypropan-2-yl)-5-(4-(trifluoromethyl)phenyl)-2-naphthamide], for which the IC50 is < 0.1 µM.

In the case of `CC(C)NC(=O)c1cnc2c(-c3ccc(C(F)(F)F)cc3)cc(Cl)c(Cl)c2c1` [Compound 94, 5,6-Dichloro-N-isopropyl-8-(4-(trifluoromethyl)phenyl)quinoline-3-carboxamide], the IC50 is < 0.1 µM.

Consider `CC(C)NC(=O)c1ccc2c(-c3ccc(C(F)(F)F)cc3)cc(N)c(O)c2c1` [Compound 95, 7-amino-8-hydroxy-N-isopropyl-5-(4-(trifluoromethyl)phenyl)-2-naphthamide], for which the IC50 lay within 0.1 to 1 µM.

Turning to `CS(=O)(=O)NC(=O)c1cnc2c(-c3ccc(C(F)(F)F)cc3)cc(Cl)c(Cl)c2c1` [Compound 96, 5,6-dichloro-N-(methylsulfonyl)-8-(4-(trifluoromethyl)phenyl)quinoline-3-carboxamide], the IC50 lay within 0.1 to 1 µM.

`COc1cc(-c2ccc(C(F)(F)F)cc2)c2ncc(C(=O)NC(C)C)cc2c1` [Compound 97, N-isopropyl-6-methoxy-8-[4-(trifluoromethyl)phenyl]quinoline-3-carboxamide]: the concentration for half-maximal inhibition (IC50) was < 0.1 µM.
